Test results as given in ChEMBL document CHEMBL1155994, “NO-NSAIDs: Gastric-sparing nitric oxide-releasable prodrugs of non-steroidal anti-inflammatory drugs” (Bioorg Med Chem Lett, 2009).
One block for each compound: values may come before it. Activity calls are given as the source filed them. The rule behind the calls is not given here.

Assays:
[1] = test system: Rattus norvegicus; test: Antiinflammatory activity against carrageenan-induced paw edema in rat at dose equimolar to 10 mg/kg aspirin, po administered 1 hr before carrageenan challenge measured after 6 hrs by plethysmometer; assay type: functional
[2] = test system: Rattus norvegicus; test: Gastrointestinal toxicity in rat assessed as ulcerogenic index at dose equimolar to 100 mg/kg of aspirin, po after 3 hrs; assay type: organism-based; set-up: dose 100 mg/kg, route oral; settings: in vivo
[3] = test system: Rattus norvegicus; test: Effect on nitric oxide release in rat assessed as plasma nitrate/nitrite concentration at dose equimolar to 10 mg/kg of diclofenac, po by Griess method; assay type: functional, organism-based; set-up: dose 10 mg/kg
[4] = test system: Rattus norvegicus; test: Gastrointestinal toxicity in rat assessed as ulcerogenic index at dose equimolar to 100 mg/kg of diclofenac, po after 5 hrs; assay type: organism-based; set-up: dose 100 mg/kg, route oral; settings: in vivo
[5] = test system: Rattus norvegicus; test: AUC in rat at po dose of equimolar to aspirin; assay type: ADME, organism-based, Plasma; settings: in vivo
[6] = test system: Rattus norvegicus; test: Antiinflammatory activity against carrageenan-induced paw edema in rat at 150 mg/kg, po administered 1 hr before carrageenan challenge measured after 6 hrs by plethysmometer; assay type: functional
[7] = test system: Rattus norvegicus; test: AUC in rat at 35 mg/kg, po; assay type: ADME, organism-based, Plasma; set-up: dose 35 mg/kg, route oral; settings: in vivo
[8] = AUC in rat at 150 mg/kg, po; assay type: ADME, organism-based; set-up: dose 150 mg/kg, route oral; settings: plasma
[9] = test system: Rattus norvegicus; test: Antiinflammatory activity against carrageenan-induced paw edema in rat at 150 mg/kg, po administered 1 hr before carrageenan challenge measured after 4 hrs by plethysmometer; assay type: functional
[10] = test system: Rattus norvegicus; test: Gastrointestinal toxicity in rat assessed as ulcerogenic index at 100 mg/kg, po after 5 hrs; assay type: organism-based; set-up: dose 100 mg/kg, route oral; settings: in vivo
[11] = test system: Rattus norvegicus; test: Antiinflammatory activity against carrageenan-induced paw edema in rat at dose equimolar to 150 mg/kg aspirin, po administered 1 hr before carrageenan challenge measured after 4 hrs by plethysmometer; assay type: functional; settings: at 150 mg/kg
[12] = test system: Rattus norvegicus; test: Antiinflammatory activity against carrageenan-induced paw edema in rat at dose equimolar to 150 mg/kg aspirin, po administered 1 hr before carrageenan challenge measured after 6 hrs by plethysmometer; assay type: functional
[13] = test system: Rattus norvegicus; test: Gastrointestinal toxicity in rat assessed as ulcerogenic index at 100 mg/kg, po after 3 hrs; assay type: organism-based; set-up: dose 100 mg/kg, route oral; settings: in vivo
[14] = test system: Rattus norvegicus; test: Antiinflammatory activity against carrageenan-induced paw edema in rat at 10 mg/kg, po administered 1 hr before carrageenan challenge measured after 6 hrs by plethysmometer; assay type: functional
[15] = test system: Rattus norvegicus; test: Antiinflammatory activity against carrageenan-induced paw edema in rat at 10 mg/kg, po administered 1 hr before carrageenan challenge measured after 4 hrs by plethysmometer; assay type: functional
[16] = AUC in rat at 10 mg/kg, po; assay type: ADME, organism-based; set-up: dose 10 mg/kg, route oral; settings: plasma

Compound: O=C(COC(=O)Cc1ccccc1Nc1c(Cl)cccc1Cl)OCCSSCCO[N+](=O)[O-]
Activity [1]: inactive

Compound: O=C(Cc1ccccc1Nc1c(Cl)cccc1Cl)OCCSSCCO[N+](=O)[O-]
UI [2]: 0 mm2 | Activity [3]: Active

Compound: CC(=O)Oc1ccccc1C(=O)OCCSSCCO[N+](=O)[O-]
UI [4]: 0 mm2 | AUC [5]: 749 ug/hr.ml

Compound: CC(=O)Oc1ccccc1C(=O)OCC(=O)OCCSSCCO[N+](=O)[O-]
inhibition [11]: inactive | Activity [12]: inactive

Second part, led by results:

AUC [7]: 909 ug/hr.ml | AUC [8]: 4050 µg·h/mL
Compound: CC(=O)Oc1ccccc1C(=O)O [ASPIRIN]
inhibition in vivo at 150 mg/kg [6]: 31% | inhibition in vivo at 150 mg/kg [9]: 30% | UI [10]: 99 mm2

AUC [16]: 65 µg·h/mL
Compound: O=C(O)Cc1ccccc1Nc1c(Cl)cccc1Cl [DICLOFENAC]
UI [13]: 108 mm2 | inhibition in vivo at 10 mg/kg [14]: 21% | Activity [15]: 55%
